Data as given in ChEMBL document CHEMBL1201862, “PubChem BioAssay data set” (2004).
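Compound exposure: 48 hours, 5 concentrations, 96-well plates. Abbreviation: GI50, concentration required for 50% inhibition of growth.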 The source made the active and inactive calls. No stated cut-off is given here; in the data, active = GI50 up to about 1.1 µM and inactive = higher. Where a SMILES comes first, the peptide text is derived from it. [ ]: non-standard residue; d: D form. The star is where a group is joined. ξ: configuration not given here. ξPhe(4-NO2) = NC(Cc1ccc([N+](=O)[O-])cc1)C(=O)O; Boc = CC(C)(C)OC(=O)*

Key:
Test in all cases: NCI-60 cell line screen, 48 h
TK-10 = test system: TK-10
SF-539 = test system: SF-539
SNB-19 = test system: SNB-19
HOP-92 = test system: HOP-92
M14 = test system: M14
OVCAR-4 = test system: OVCAR-4
MDA-MB-435 = test system: MDA-MB-435
MCF7 = test system: MCF7
K562 = test system: K562
ACHN = test system: ACHN
A498 = test system: A498
HOP-62 = test system: HOP-62
NCI-H460 = test system: NCI-H460
SN12C = test system: SN12C
UO-31 = test system: UO-31
Hs-578T = test system: Hs-578T
MDA-N = test system: MDA-N
UACC-62 = test system: UACC-62
NCI-H226 = test system: NCI-H226
SK-MEL-5 = test system: SK-MEL-5
SK-OV-3 = test system: SK-OV-3
SK-MEL-28 = test system: SK-MEL-28
DU-145 = test system: DU-145
SR = test system: SR
NCI-H522 = test system: NCI-H522
OVCAR-5 = test system: OVCAR-5
RXF 393 = test system: RXF 393
SNB-75 = test system: SNB-75
NCI/ADR-RES = test system: NCI/ADR-RES
EKVX = test system: EKVX
RPMI-8226 = test system: RPMI-8226
786-0 = test system: 786-0
MOLT-4 = test system: MOLT-4
CAKI-1 = test system: CAKI-1
HT-29 = test system: HT-29
IGROV-1 = test system: IGROV-1
SF-268 = test system: SF-268
UACC-257 = test system: UACC-257
CCRF-CEM = test system: CCRF-CEM
NCI-H23 = test system: NCI-H23
A549 = test system: A549
SK-MEL-2 = test system: SK-MEL-2
HCC 2998 = test system: HCC 2998
BT-549 = test system: BT-549
KM12 = test system: KM12
Malme-3M = test system: Malme-3M
PC-3 = test system: PC-3
HL-60 = test system: HL-60
T47D = test system: T47D
SW-620 = test system: SW-620
OVCAR-3 = test system: OVCAR-3
MDA-MB-231 = test system: MDA-MB-231
COLO 205 = test system: COLO 205
OVCAR-8 = test system: OVCAR-8
HCT-116 = test system: HCT-116
SF-295 = test system: SF-295
HCT-15 = test system: HCT-15
U-251 = test system: U-251
LOX IMVI = test system: LOX IMVI

## CCCCOc1ccc(/C=C/C2=[N+](CCO)CCO2)cc1
TK-10
  GI50: > 100 µM (inactive)
SF-539
  GI50: 21.7 µM (inactive)
SNB-19
  GI50: > 100 µM (inactive)
HOP-92
  GI50: 44.3 µM (inactive)
M14
  GI50: 76.7 µM (inactive)
OVCAR-4
  GI50: > 100 µM (inactive)
MDA-MB-435
  GI50: > 100 µM (inactive)
MCF7
  GI50: 29.4 µM (inactive)
K562
  GI50: 24 µM (inactive)
ACHN
  GI50: 91.6 µM (inactive)
A498
  GI50: > 100 µM (inactive)
HOP-62
  GI50: > 100 µM (inactive)
NCI-H460
  GI50: 68.7 µM (inactive)
SN12C
  GI50: 97.3 µM (inactive)
UO-31
  GI50: 32.1 µM (inactive)
Hs-578T
  GI50: > 100 µM (inactive)
MDA-N
  GI50: > 100 µM (inactive)
UACC-62
  GI50: > 100 µM (inactive)
NCI-H226
  GI50: 27.2 µM (inactive)
SK-MEL-5
  GI50: 68.5 µM (inactive)
SK-OV-3
  GI50: > 100 µM (inactive)
SK-MEL-28
  GI50: > 100 µM (inactive)
DU-145
  GI50: > 100 µM (inactive)
SR
  GI50: 38 µM (inactive)
NCI-H522
  GI50: 21.5 µM (inactive)
OVCAR-5
  GI50: > 100 µM (inactive)
RXF 393
  GI50: 17.9 µM (inactive)
SNB-75
  GI50: 67.1 µM (inactive)
NCI/ADR-RES
  GI50: 78 µM (inactive)
EKVX
  GI50: > 100 µM (inactive)
RPMI-8226
  GI50: 26.8 µM (inactive)
786-0
  GI50: 54.1 µM (inactive)
MOLT-4
  GI50: 53 µM (inactive)
CAKI-1
  GI50: 67.5 µM (inactive)
HT-29
  GI50: 17.6 µM (inactive)
IGROV-1
  GI50: 85.5 µM (inactive)
SF-268
  GI50: > 100 µM (inactive)
UACC-257
  GI50: > 100 µM (inactive)
CCRF-CEM
  GI50: 30.4 µM (inactive)
NCI-H23
  GI50: > 100 µM (inactive)
A549
  GI50: 55.3 µM (inactive)
SK-MEL-2
  GI50: > 100 µM (inactive)
HCC 2998
  GI50: 22.5 µM (inactive)
BT-549
  GI50: > 100 µM (inactive)
KM12
  GI50: 34 µM (inactive)
Malme-3M
  GI50: 80 µM (inactive)
PC-3
  GI50: 68.4 µM (inactive)
HL-60
  GI50: 21.7 µM (inactive)
T47D
  GI50: 30.5 µM (inactive)
SW-620
  GI50: 33.6 µM (inactive)
OVCAR-3
  GI50: 61.5 µM (inactive)
MDA-MB-231
  GI50: 61.9 µM (inactive)
COLO 205
  GI50: 24.7 µM (inactive)
OVCAR-8
  GI50: 70.1 µM (inactive)
HCT-116
  GI50: 39.8 µM (inactive)
SF-295
  GI50: 48.5 µM (inactive)
HCT-15
  GI50: 51.9 µM
U-251
  GI50: 34.4 µM (inactive)

## CCNC(=O)CNC(=O)C(Cc1ccc([N+](=O)[O-])cc1)NC(=O)OC(C)(C)C (centres undefined) (Boc-[ξPhe(4-NO2)]-Gly-NHEt)
TK-10
  GI50: > 100 µM (inactive)
SNB-19
  GI50: > 100 µM (inactive)
HOP-92
  GI50: > 100 µM (inactive)
M14
  GI50: > 100 µM (inactive)
OVCAR-4
  GI50: > 100 µM (inactive)
MDA-MB-435
  GI50: > 100 µM (inactive)
MCF7
  GI50: > 100 µM (inactive)
K562
  GI50: > 100 µM (inactive)
ACHN
  GI50: > 100 µM (inactive)
A498
  GI50: 53.6 µM (inactive)
HOP-62
  GI50: > 100 µM (inactive)
NCI-H460
  GI50: > 100 µM (inactive)
SN12C
  GI50: > 100 µM (inactive)
UO-31
  GI50: > 100 µM (inactive)
Hs-578T
  GI50: > 100 µM (inactive)
MDA-N
  GI50: > 100 µM (inactive)
UACC-62
  GI50: > 100 µM (inactive)
NCI-H226
  GI50: > 100 µM (inactive)
LOX IMVI
  GI50: > 100 µM (inactive)
SK-MEL-5
  GI50: > 100 µM (inactive)
SK-OV-3
  GI50: > 100 µM (inactive)
SK-MEL-28
  GI50: > 100 µM (inactive)
DU-145
  GI50: > 100 µM (inactive)
SR
  GI50: > 100 µM (inactive)
NCI-H522
  GI50: > 100 µM (inactive)
OVCAR-5
  GI50: > 100 µM (inactive)
RXF 393
  GI50: > 100 µM (inactive)
SNB-75
  GI50: > 100 µM (inactive)
NCI/ADR-RES
  GI50: > 100 µM (inactive)
EKVX
  GI50: > 100 µM (inactive)
RPMI-8226
  GI50: > 100 µM (inactive)
786-0
  GI50: > 100 µM (inactive)
MOLT-4
  GI50: > 100 µM (inactive)
CAKI-1
  GI50: > 100 µM (inactive)
HT-29
  GI50: > 100 µM (inactive)
IGROV-1
  GI50: > 100 µM (inactive)
SF-268
  GI50: > 100 µM (inactive)
CCRF-CEM
  GI50: > 100 µM (inactive)
NCI-H23
  GI50: > 100 µM (inactive)
A549
  GI50: > 100 µM (inactive)
HCC 2998
  GI50: > 100 µM (inactive)
BT-549
  GI50: > 100 µM (inactive)
KM12
  GI50: > 100 µM (inactive)
Malme-3M
  GI50: > 100 µM (inactive)
PC-3
  GI50: > 100 µM (inactive)
HL-60
  GI50: > 100 µM (inactive)
T47D
  GI50: > 10 µM (inactive)
SW-620
  GI50: > 100 µM (inactive)
OVCAR-3
  GI50: > 100 µM (inactive)
MDA-MB-231
  GI50: > 100 µM (inactive)
COLO 205
  GI50: > 100 µM (inactive)
OVCAR-8
  GI50: > 100 µM (inactive)
HCT-116
  GI50: > 100 µM (inactive)
SF-295
  GI50: > 100 µM (inactive)
HCT-15
  GI50: > 100 µM
U-251
  GI50: > 100 µM (inactive)
